The values that follow come from patent publication US20100004303A1, “TREATMENT OF ENDOCRINE DYSFUNCTION USING IRON CHELATORS” (NOVARTIS AG, priority 2006, published 2010).

Assay [1] relates to HJV−/− mice with iron overload. In words: Pancreas iron (ICP-OES) in HJV−/− mice with iron overload. It is filed as in vivo. How it is done:
The spontaneous iron loading and the effect of 4-[3,5-bis(2-hydroxyphenyl)-[1,2,4]triazol-1-yl]benzoic acid (Compound I) has been examined upon the removal of iron in HJV−/− mice with iron overload.
Methods: Inductively-Coupled Plasma Optical Emission Spectrometry (ICP-OES, measurement of elemental iron) determinations in spleen and pancreas were performed at week 8 (study start), 14, 20 and 28 in HJV−/− and wild type (wt) mice (n=6−8). Starting at week 20 three groups of HJV−/− animals received daily 0 (vehicle), 30 or 100 mg/kg of 4-[3,5-bis(2-hydroxyphenyl)-[1,2,4]triazol-1-yl]benzoic acid, control wt-mice remained untreated. Iron loading was observed up to 28 weeks, including vehicle group, and the effects of 4-[3,5-bis(2-hydroxyphenyl)-[1,2,4]triazol-1-yl]benzoic acid were assessed by comparing the 28-week groups. MRI R2* measurements were performed using a 4.7 MR imager.

For a further assay, the system named is At20 pituitary cells. The assay can be described thus: Cytoprotective effect on acutely iron-overloaded At20 pituitary cells (calcein retention, Alamar-Blue, ACTH levels). It is filed as cell-based. The note with it: cell culture conditions, pharmacological chelator concentrations. An excerpt:
A major cause of biological damage associated with tissue iron accumulation is the cellular acquisition of circulating labile plasma iron (LPI) by endocytic mechanisms and ensuing metal-catalyzed oxidations. Endocrine cells are presumed to have endocytic abilities and/or high susceptibility to the formation of reactive oxygen intermediates (ROIs), particularly those generated in the presence of labile iron. As these properties might be implicated in the early onset of endocrine dysfunctions observed in transfusional hemosiderosis, a major goal of iron chelation therapy is to prevent iron ingress into endocrine cells and ensuing toxicity and/or removal of cell accumulated iron. Such properties of chelators have been afforded in cardiac cells (Glickstein et al, 2006, Blood In press) by treating LPI-carrying plasma with pharmacological attainable concentrations of orally active iron chelators in clinical practice. […] It has been explored here whether addition of 4-[3,5-bis(2-hydroxyphenyl)-[1,2,4]triazol-1-yl]benzoic acid could rescue acutely-iron-overloaded At20 pituitary cells from iron-toxicity, using fluorescence-plate reader and microscopy-imaging for live monitoring of cell functions and assessing toxicity in terms of: 1. cell integrity (calcein cell retention assay) 2. metabolic activities (mitochondrial Alamar-Blue assay) and 3. intracellular (ACTH) hormone levels.

In another assay the test system is pituitary Att20 cells. The assay can be described thus: Labile iron exposure of pituitary Att20 cells: iron accumulation, cell damage, viability. It is filed as cell-based. An excerpt: (§1) Among the functions affected by metal-evoked ROS are cell permselectivity (calcein leakage), mitochondrial membrane potential (JC1 test), electron transport activity (Alamar Blue) and cell viability (calcein-propidium iodide). It can be observed that administration of deferasirox at therapeutically achievable doses ([…]): […]

The next assay has as its system pancreatic Min6 cells. The assay can be described thus: Labile iron exposure of pancreatic Min6 cells: iron accumulation, cell damage, viability. It is filed as cell-based.
Excerpt: as §1

The conditions of assay [2]: model systems and humans; Hershko 2001, Nisbet Brown 2003; cited from earlier work.
Another assay relates to Diet-induced obese mice. In words: Oral glucose tolerance test and plasma insulin in diet-induced obese mice. The assay is classed as in vivo. The note with it: compared to the control animals. How it is done: Diet-induced obese mice are used for the study at 21-23 weeks of age. On the first day of the study, animals are fasted at 7:30 a.m. Body weight measurement and basal blood sample collection are conducted at 10:30 a.m. Plasma glucose values are then determined. Animals were assigned into 4 groups (n=10/group) with the plasma glucose values and body weights matched between the 4 groups. At 12 pm, the animals are dosed orally with vehicle (water) or the Compound I at 30 mg/kg or […] respectively. At 1:00 p.m. a blood sample (at 0 min) is taken followed by an oral glucose tolerance test (OGTT) at 1 g/kg (20% glucose in water) at a dose volume of 5 ml/kg. Blood samples are collected at 30, 60 and 120 min following the glucose administration. The animals are refed after the OGTT. […]
Blood samples are taken during the study via tail bleeding. Plasma glucose concentrations are determined using a glucose meter (Ascensia Elite, Bayer Corp., Mishawaka, Ind.). […] Plasma insulin and glucagons levels are determined by Luminex assays using Mouse Endocrine Lincoplex kit (Linco Research, Inc., St. Charles, Mo.). […] Plasma triglyceride, fatty acid and total cholesterol levels are determined using a fluorescent assay based on Amplex Red kit (Molecular Probes, Eugene, Oreg.). […] Effects on cardiovascular diseases can also be assessed by further analysis on treated animals.

A further assay relates to subjects with IGM. In words: Multi-center, double-blind, randomized study in subjects with IGM. The assay is classed as in vivo, human. The note with it: 8 weeks of treatment. An excerpt: Favorable effects can be verified that confirm that Compound I can restore early phase insulin secretion and reduce post-prandial glucose levels in subjects with IGM, or can prevent or delay the onset of Type 2 diabetes and cardiovascular diseases in subjects with IGM. A multi-center, double-blind, parallel group, randomized study can be conducted in subjects with IGM in order to evaluate the incidence of confirmed hypoglycemia and the effects on prandial glucose associated with the administration of Compound I, or placebo before each main meal during 8 weeks of treatment. […]
Corresponding dosages of Compound I are administered daily depending on the number of main meals (breakfast, lunch, snack, dinner). […] HbA1c is to be measured at baseline and after 8 weeks of treatment (fasting glucose and fructosamine). Samples of blood are to be drawn at 10, 20, […], 60, 120, and 180 minutes after drug administration (time 0) and the glucose and insulin levels to be measured. […]

Where [3] appears, read: 30-100 μM, incubated prior to or post iron-loading (acutely or chronically).
Where [4] appears, read: 30-100 μM, present in the iron loading medium.
Where [5] appears, read: 30-100 μm, incubated prior to or post iron-loading (acutely or chronically).

Take `O=C(O)c1ccc(-n2nc(-c3ccccc3O)nc2-c2ccccc2O)cc1` [Compound I, 4-[3,5-Bis-(2-hydroxyphenyl)-[1,2,4]-triazol-1-yl]benzoic acid]: the “pancreas iron ± SEM” value in assay [1] (30 mg/kg daily from week 20, 28-week group, n = 7) is listed as 4.72 ± 0.65 mg/g dry weight; in assay [1] (100 mg/kg daily from week 20, 28-week group, n = 6), 3.54 ± 0.55 mg/g dry weight. For the same molecule, in assay [1] (100 mg/kg dose), the “pancreas iron levels, effect in words” value was “clear trend to lower levels”. For the same molecule, the “pancreatic iron load, effect in words” value in assay [1] (within 8 weeks of treatment) is “trend to improvement of pancreatic iron load”. Moreover, in the assay with At20 pituitary cells, the “At20 endocrine cell viability and functional properties compromised by iron-catalyzed formation of ROIs” value was “can preserve both At20 endocrine cell viability and functional properties”. The cell viability result with pituitary Att20 cells (setting [3]) and in the assay with pancreatic Min6 cells (setting [3]) was “increases cell viability” in each case. For the same molecule, the “labile iron raising in cells” value in the assay on pituitary Att20 cells (setting [4]) and with pancreatic Min6 cells (setting [4]) was “largely prevents labile iron from raising in cells” throughout. For the same molecule, the iron-evoked cell damage result in the assay with pituitary Att20 cells (setting [5]) and with pancreatic Min6 cells (setting [5]) was “reduces iron-evoked cell damage” throughout. For the same molecule, in assay [2], the “selective removal of iron” value was “effective in the selective removal of iron”. For the same molecule, the plasma insulin levels result in the assay on Diet-induced obese mice was “can show a lowering in plasma insulin levels”. Moreover, the “2 hour prandial glucose levels, HBA1c and fructosamine levels” value in the assay with subjects with IGM is on record as “can be reduced”. In addition, the “early phase insulin secretion” value with subjects with IGM is “can be restored”.
